Measured values from publication PMC3640414 (Journal of Medicinal Chemistry, 2013).

Experiments:
[1] = test system: A549 (lung adenocarcinoma) cells; test: MTS cytotoxicity assay, A549 cells; format: cell-based; settings: 100 μM, 72 h
Description: (§1) We also investigated the effects of 8 and 9 in two lung adenocarcinoma cell lines, A549 and H1975. […] H1975 appeared to be somewhat more sensitive to these compounds, a finding confirmed by a clonogenic survival assay (Supporting Information Figure S5).
(§2) Viability of MV4;11, H549, and H1975 cells was monitored by MTS-based CellTiter 96 AQueous nonradioactive cell proliferation assay (Promega, Madison, WI). Viability of U2OS and HeLa cells was monitored by WST-based cell proliferation kit (Roche, Mannheim, Germany). Further details are provided in Supporting Information

[2] = test system: H1975 (lung adenocarcinoma) cells; test: MTS cytotoxicity assay, H1975 cells; format: cell-based; settings: 100 μM, 72 h
Description: as §1, §2

[3] = target: T1, BRD4(1) (Homo sapiens, UniProt O60885); test: AlphaScreen peptide displacement assay (ALPHA), BRD4(1); format: binding; settings: for selectivity for BRD4(1) over CREBBP bromodomain: comparison of ALPHA IC50 values
T1 construct: amplify the N-terminal bromodomain region of the protein; made in house

[4] = Stability of 8 in buffer (chiral HPLC); format: physicochemical; settings: 2 h in 50 mM HEPES, 0.01% TWEEN, 0.1% BSA
Description: vacuum manifold with the inert gas passing through a bed of activated 4 Å molecular sieves and self-indicating silica gel. Cs2CO3, K2CO3 and activated MnO2 were dried in an oven prior to use.
PhMgBr (in THF) was titrated against salicaldehyde phenylhydrazone prior to use, according to the procedure of Love and Jones.9
Reactions with microwave irradiation were carried out in a Biotage Initiator microwave […]
In vacuo refers to the use of a rotary evaporator attached to a diaphragm pump. Brine refers to a saturated aqueous solution of sodium chloride. Petroleum ether refers to the fraction boiling between 30–40 °C unless otherwise stated.
Stability of 8 in buffer: 0.5 mg of (+)-8 in 10 μL DMSO was suspended in buffer (50 mM HEPES, 0.01% TWEEN, 0.1% BSA). […]
Cytotoxcity of 8 in HeLa and U2OS cells: HeLa cells were grown and maintained in DMEM supplemented with L-glutamine and 10% fetal calf serum; U2OS cells were grown and maintained in McCoy’s medium supplemented with 10% fetal calf serum. […] After 24 h or 72 h, 10 μL of WST-1 (Roche Diagnostics) was added to the culture medium and cell viability was determined by colorimetric WST-1 conversion assay. Formazan dye formation was measured at 450 nm using a Molecular devices Spectramax Plus384 microplate reader. Relative WST-1 conversion in treated cells compared with untreated control cells was calculated after […]

CC(=O)Oc1cc(-c2c(C)noc2C)cc(C(O)c2ccccc2)c1 (stereo not drawn) [Compound 9, 3-(3,5-Dimethylisoxazol-4-yl)-5-(hydroxy(phenyl)methyl)phenyl Acetate]
effect on viability of A549 cells [1]: markedly reduced the viability
effect on viability of H1975 cells [2]: markedly reduced the viability

CCOc1cc(-c2c(C)noc2C)cc(C(O)c2ccccc2)c1 (stereo not drawn) [Compound 12, (3-(3,5-Dimethylisoxazol-4-yl)-5-ethoxyphenyl)(phenyl)methanol]
selectivity for BRD4(1) over CREBBP bromodomain [3]: approximately 6 fold
ligand efficiency ([3]; for BRD4(1)): 0.36

CCOc1cc(-c2c(C)noc2C)cc(C(C)O)c1 (stereo not drawn) [Compound 3]
selectivity for BRD4(1) over CREBBP bromodomain [3]: approximately 6 fold
ligand efficiency ([3]; for BRD4(1)): 0.39
lipophilic ligand efficiency ([3]; for BRD4(1)): 3.12

Cc1noc(C)c1-c1cc(O)cc([C@@H](O)c2ccccc2)c1 [(S)-(+)-8, 3-(3,5-Dimethylisoxazol-4-yl)-5-(hydroxy(phenyl)methyl)phenol]
enantiomeric excess after incubation in buffer [4]: > 98 % ee
purity after incubation in buffer [4]: 95%
